{"source": "ChEMBL document CHEMBL1201862", "about": "“PubChem BioAssay data set” (2004)", "test_in_all_cases": "NCI tumour cell line growth inhibition, 48 h", "key": {"786-0": {"system": "786-0"}, "A498": {"system": "A498"}, "A549": {"system": "A549"}, "ACHN": {"system": "ACHN"}, "BT-549": {"system": "BT-549"}, "CAKI-1": {"system": "CAKI-1"}, "CCRF-CEM": {"system": "CCRF-CEM"}, "COLO 205": {"system": "COLO 205"}, "DU-145": {"system": "DU-145"}, "EKVX": {"system": "EKVX"}, "HCC 2998": {"system": "HCC 2998"}, "HCT-116": {"system": "HCT-116"}, "HCT-15": {"system": "HCT-15"}, "HL-60": {"system": "HL-60"}, "HOP-62": {"system": "HOP-62"}, "HOP-92": {"system": "HOP-92"}, "HT-29": {"system": "HT-29"}, "Hs-578T": {"system": "Hs-578T"}, "IGROV-1": {"system": "IGROV-1"}, "K562": {"system": "K562"}, "KM12": {"system": "KM12"}, "LOX IMVI": {"system": "LOX IMVI"}, "M14": {"system": "M14"}, "MCF7": {"system": "MCF7"}, "MDA-MB-231": {"system": "MDA-MB-231"}, "MDA-MB-435": {"system": "MDA-MB-435"}, "MDA-N": {"system": "MDA-N"}, "MOLT-4": {"system": "MOLT-4"}, "Malme-3M": {"system": "Malme-3M"}, "NCI-H226": {"system": "NCI-H226"}, "NCI-H23": {"system": "NCI-H23"}, "NCI-H460": {"system": "NCI-H460"}, "NCI-H522": {"system": "NCI-H522"}, "NCI/ADR-RES": {"system": "NCI/ADR-RES"}, "OVCAR-3": {"system": "OVCAR-3"}, "OVCAR-4": {"system": "OVCAR-4"}, "OVCAR-5": {"system": "OVCAR-5"}, "OVCAR-8": {"system": "OVCAR-8"}, "PC-3": {"system": "PC-3"}, "RPMI-8226": {"system": "RPMI-8226"}, "RXF 393": {"system": "RXF 393"}, "SF-268": {"system": "SF-268"}, "SF-295": {"system": "SF-295"}, "SF-539": {"system": "SF-539"}, "SK-MEL-28": {"system": "SK-MEL-28"}, "SK-MEL-2": {"system": "SK-MEL-2"}, "SK-MEL-5": {"system": "SK-MEL-5"}, "SK-OV-3": {"system": "SK-OV-3"}, "SN12C": {"system": "SN12C"}, "SNB-19": {"system": "SNB-19"}, "SNB-75": {"system": "SNB-75"}, "SR": {"system": "SR"}, "SW-620": {"system": "SW-620"}, "T47D": {"system": "T47D"}, "TK-10": {"system": "TK-10"}, "U-251": {"system": "U-251"}, "UACC-257": {"system": "UACC-257"}, "UACC-62": {"system": "UACC-62"}, "UO-31": {"system": "UO-31"}}, "note": "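Growth conditions: 96-well plates. Treatment: test compound, 48 hours, 5 concentrations. Analysis: linear interpolation between bracketing concentrations; unreached endpoints set to highest concentration. At the GI50, growth is halved.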 Calls of active or inactive are those of the source. Cut-off read from the data, not from the text of the source: active = GI50 up to about 1.1 µM and inactive = higher.", "data": [{"smiles": "CCOC(=O)c1c(C)n(CCN2CCN(C)CC2)c2ccc(OC)cc12", "values": [{"measurement": "GI50", "setting": "786-0", "value": "38 µM (inactive)"}, {"measurement": "GI50", "setting": "A498", "value": "22.5 µM (inactive)"}, {"measurement": "GI50", "setting": "A549", "value": "> 100 µM (inactive)"}, {"measurement": "GI50", "setting": "ACHN", "value": "65 µM (inactive)"}, {"measurement": "GI50", "setting": "BT-549", "value": "45.4 µM (inactive)"}, {"measurement": "GI50", "setting": "CAKI-1", "value": "32.3 µM (inactive)"}, {"measurement": "GI50", "setting": "CCRF-CEM", "value": "24 µM (inactive)"}, {"measurement": "GI50", "setting": "COLO 205", "value": "16.9 µM (inactive)"}, {"measurement": "GI50", "setting": "DU-145", "value": "> 100 µM (inactive)"}, {"measurement": "GI50", "setting": "EKVX", "value": "> 100 µM (inactive)"}, {"measurement": "GI50", "setting": "HCC 2998", "value": "16.6 µM (inactive)"}, {"measurement": "GI50", "setting": "HCT-116", "value": "38.4 µM (inactive)"}, {"measurement": "GI50", "setting": "HCT-15", "value": 28.8, "unit": "µM"}, {"measurement": "GI50", "setting": "HL-60", "value": "19.6 µM (inactive)"}, {"measurement": "GI50", "setting": "HOP-62", "value": "32.3 µM (inactive)"}, {"measurement": "GI50", "setting": "HOP-92", "value": "14 µM (inactive)"}, {"measurement": "GI50", "setting": "HT-29", "value": "24.7 µM (inactive)"}, {"measurement": "GI50", "setting": "Hs-578T", "value": "55.5 µM (inactive)"}, {"measurement": "GI50", "setting": "IGROV-1", "value": "31.2 µM (inactive)"}, {"measurement": "GI50", "setting": "K562", "value": "20.7 µM (inactive)"}, {"measurement": "GI50", "setting": "KM12", "value": "44.3 µM (inactive)"}, {"measurement": "GI50", "setting": "LOX IMVI", "value": "16.6 µM (inactive)"}, {"measurement": "GI50", "setting": "M14", "value": "16 µM (inactive)"}, {"measurement": "GI50", "setting": "MCF7", "value": "33.6 µM (inactive)"}, {"measurement": "GI50", "setting": "MDA-MB-231", "value": "24.5 µM (inactive)"}, {"measurement": "GI50", "setting": "MDA-MB-435", "value": "19.9 µM (inactive)"}, {"measurement": "GI50", "setting": "MDA-N", "value": "19.6 µM (inactive)"}, {"measurement": "GI50", "setting": "MOLT-4", "value": "22.6 µM (inactive)"}, {"measurement": "GI50", "setting": "Malme-3M", "value": "21.9 µM (inactive)"}, {"measurement": "GI50", "setting": "NCI-H226", "value": "29.7 µM (inactive)"}, {"measurement": "GI50", "setting": "NCI-H23", "value": "> 100 µM (inactive)"}, {"measurement": "GI50", "setting": "NCI-H460", "value": "48.9 µM (inactive)"}, {"measurement": "GI50", "setting": "NCI-H522", "value": "28.6 µM (inactive)"}, {"measurement": "GI50", "setting": "NCI/ADR-RES", "value": "69.7 µM (inactive)"}, {"measurement": "GI50", "setting": "OVCAR-3", "value": "> 100 µM (inactive)"}, {"measurement": "GI50", "setting": "OVCAR-4", "value": "48.6 µM (inactive)"}, {"measurement": "GI50", "setting": "OVCAR-5", "value": "61.4 µM (inactive)"}, {"measurement": "GI50", "setting": "OVCAR-8", "value": "> 100 µM (inactive)"}, {"measurement": "GI50", "setting": "PC-3", "value": "34 µM (inactive)"}, {"measurement": "GI50", "setting": "RPMI-8226", "value": "20.4 µM (inactive)"}, {"measurement": "GI50", "setting": "RXF 393", "value": "30.1 µM (inactive)"}, {"measurement": "GI50", "setting": "SF-268", "value": "53.7 µM (inactive)"}, {"measurement": "GI50", "setting": "SF-295", "value": "34.8 µM (inactive)"}, {"measurement": "GI50", "setting": "SF-539", "value": "30 µM (inactive)"}, {"measurement": "GI50", "setting": "SK-MEL-28", "value": "16.5 µM (inactive)"}, {"measurement": "GI50", "setting": "SK-MEL-2", "value": "17.6 µM (inactive)"}, {"measurement": "GI50", "setting": "SK-MEL-5", "value": "16.5 µM (inactive)"}, {"measurement": "GI50", "setting": "SK-OV-3", "value": "72.6 µM (inactive)"}, {"measurement": "GI50", "setting": "SN12C", "value": "50.9 µM (inactive)"}, {"measurement": "GI50", "setting": "SNB-19", "value": "90.2 µM (inactive)"}, {"measurement": "GI50", "setting": "SNB-75", "value": "24.8 µM (inactive)"}, {"measurement": "GI50", "setting": "SR", "value": "20 µM (inactive)"}, {"measurement": "GI50", "setting": "SW-620", "value": "37.5 µM (inactive)"}, {"measurement": "GI50", "setting": "T47D", "value": "34.4 µM (inactive)"}, {"measurement": "GI50", "setting": "TK-10", "value": "33.3 µM (inactive)"}, {"measurement": "GI50", "setting": "U-251", "value": "31.8 µM (inactive)"}, {"measurement": "GI50", "setting": "UACC-257", "value": "16.9 µM (inactive)"}, {"measurement": "GI50", "setting": "UACC-62", "value": "17 µM (inactive)"}, {"measurement": "GI50", "setting": "UO-31", "value": "35.1 µM (inactive)"}]}]}
